Species on record: Rattus norvegicus
Assay: DrugMatrix - Regimen: Daily Repeat
Assay type: toxicity, organism-based, Sprague-Dawley
Design: regimen Daily Repeat, gender Male, age 6-8 weeks
Settings: in vivo, po, route oral GAVAGE, vehicle .5 % CMC; for BASOPHIL / EOSINOPHIL / ERYTHROCYTE COUNT / HEMATOCRIT / HEMOGLOBIN / LEUKOCYTE COUNT / LYMPHOCYTE / MEAN CORPUSCULAR HEMOGLOBIN / MEAN CORPUSCULAR HEMOGLOBIN CONCENTRATION / MEAN CORPUSCULAR VOLUME / MONOCYTE / NEUTROPHIL / PLATELET COUNT: tissue Blood; for ALANINE AMINOTRANSFERASE / ALBUMIN / ALKALINE PHOSPHATASE / ASPARTATE AMINOTRANSFERASE / BLOOD UREA NITROGEN / CHLORIDE / CHOLESTEROL / CREATINE PHOSPHOKINASE / CREATININE / GLUCOSE / PHOSPHORUS / POTASSIUM / SODIUM / TOTAL BILIRUBIN / TOTAL PROTEIN: tissue Plasma
[1] = 20 mg/kg, 72 h, dose level Low, time 3 day
[2] = 20 mg/kg, 120 h, dose level Low, time 5 day
[3] = 380 mg/kg, 72 h, dose level High, time 3 day
[4] = 380 mg/kg, 120 h, dose level High, time 5 day

CNCCCC12CCC(c3ccccc31)c1ccccc12 [MAPROTILINE]
BASOPHIL [1]: 0%
EOSINOPHIL [1]: 0.33%
ERYTHROCYTE COUNT [1]: 5.97 x10E6/uL
HEMATOCRIT [1]: 35.97%
HEMOGLOBIN [1]: 14.2 G/DL
LEUKOCYTE COUNT [1]: 11.3 x10E3/uL
LYMPHOCYTE [1]: 87.33%
MEAN CORPUSCULAR HEMOGLOBIN [1]: 23.77 pg
MEAN CORPUSCULAR HEMOGLOBIN CONCENTRATION [1]: 39.47 G/DL
MEAN CORPUSCULAR VOLUME [1]: 60.2 fL
MONOCYTE [1]: 1.67%
NEUTROPHIL [1]: 10.67%
PLATELET COUNT [1]: 1123 x10E3/uL
ALANINE AMINOTRANSFERASE [1]: 39.33 u/L
ALBUMIN [1]: 3.83 G/DL
ALKALINE PHOSPHATASE [1]: 403 u/L
ASPARTATE AMINOTRANSFERASE [1]: 64 u/L
BLOOD UREA NITROGEN [1]: 12.67 mg/dL
CHLORIDE [1]: 106.67 MEQ/L
CHOLESTEROL [1]: 71.67 mg/dL
CREATINE PHOSPHOKINASE [1]: 175 u/L
CREATININE [1]: 0.67 mg/dL
GLUCOSE [1]: 177.33 mg/dL
PHOSPHORUS [1]: 12.37 mg/dL
POTASSIUM [1]: 6.9 MEQ/L
SODIUM [1]: 151.33 MEQ/L
TOTAL BILIRUBIN [1]: 0.57 mg/dL
TOTAL PROTEIN [1]: 6.1 G/DL
BASOPHIL [2]: 0%
EOSINOPHIL [2]: 1%
ERYTHROCYTE COUNT [2]: 6.02 x10E6/uL
HEMATOCRIT [2]: 36.33%
HEMOGLOBIN [2]: 15.57 G/DL
LEUKOCYTE COUNT [2]: 13.27 x10E3/uL
LYMPHOCYTE [2]: 86.33%
MEAN CORPUSCULAR HEMOGLOBIN [2]: 25.9 pg
MEAN CORPUSCULAR HEMOGLOBIN CONCENTRATION [2]: 42.9 G/DL
MEAN CORPUSCULAR VOLUME [2]: 60.4 fL
MONOCYTE [2]: 1.33%
NEUTROPHIL [2]: 11.33%
PLATELET COUNT [2]: 1112.33 x10E3/uL
ALANINE AMINOTRANSFERASE [2]: 38.67 u/L
ALBUMIN [2]: 3.83 G/DL
ALKALINE PHOSPHATASE [2]: 339.67 u/L
ASPARTATE AMINOTRANSFERASE [2]: 60 u/L
BLOOD UREA NITROGEN [2]: 14.33 mg/dL
CHLORIDE [2]: 108.67 MEQ/L
CHOLESTEROL [2]: 65.33 mg/dL
CREATINE PHOSPHOKINASE [2]: 168.67 u/L
CREATININE [2]: 0.7 mg/dL
GLUCOSE [2]: 182.33 mg/dL
PHOSPHORUS [2]: 12 mg/dL
POTASSIUM [2]: 6.77 MEQ/L
SODIUM [2]: 149 MEQ/L
TOTAL BILIRUBIN [2]: 0.6 mg/dL
TOTAL PROTEIN [2]: 6.27 G/DL
BASOPHIL [3]: 0%
EOSINOPHIL [3]: 0.33%
ERYTHROCYTE COUNT [3]: 6.59 x10E6/uL
HEMATOCRIT [3]: 38.93%
HEMOGLOBIN [3]: 15.5 G/DL
LEUKOCYTE COUNT [3]: 12 x10E3/uL
LYMPHOCYTE [3]: 88.67%
MEAN CORPUSCULAR HEMOGLOBIN [3]: 23.53 pg
MEAN CORPUSCULAR HEMOGLOBIN CONCENTRATION [3]: 39.8 G/DL
MEAN CORPUSCULAR VOLUME [3]: 59.17 fL
MONOCYTE [3]: 2.33%
NEUTROPHIL [3]: 8.67%
PLATELET COUNT [3]: 1142.67 x10E3/uL
ALANINE AMINOTRANSFERASE [3]: 38 u/L
ALBUMIN [3]: 3.63 G/DL
ALKALINE PHOSPHATASE [3]: 350.33 u/L
ASPARTATE AMINOTRANSFERASE [3]: 63.67 u/L
BLOOD UREA NITROGEN [3]: 14.33 mg/dL
CHLORIDE [3]: 106.33 MEQ/L
CHOLESTEROL [3]: 88.67 mg/dL
CREATINE PHOSPHOKINASE [3]: 166.33 u/L
CREATININE [3]: 0.5 mg/dL
GLUCOSE [3]: 164.67 mg/dL
PHOSPHORUS [3]: 10.83 mg/dL
POTASSIUM [3]: 6.27 MEQ/L
SODIUM [3]: 152.33 MEQ/L
TOTAL BILIRUBIN [3]: 0.4 mg/dL
TOTAL PROTEIN [3]: 5.93 G/DL
BASOPHIL [4]: 0%
EOSINOPHIL [4]: 1%
ERYTHROCYTE COUNT [4]: 7.43 x10E6/uL
HEMATOCRIT [4]: 42%
HEMOGLOBIN [4]: 16.1 G/DL
LEUKOCYTE COUNT [4]: 7.2 x10E3/uL
LYMPHOCYTE [4]: 85%
MEAN CORPUSCULAR HEMOGLOBIN [4]: 21.7 pg
MEAN CORPUSCULAR HEMOGLOBIN CONCENTRATION [4]: 38.3 G/DL
MEAN CORPUSCULAR VOLUME [4]: 56.5 fL
MONOCYTE [4]: 1%
NEUTROPHIL [4]: 13%
PLATELET COUNT [4]: 1275 x10E3/uL
ALANINE AMINOTRANSFERASE [4]: 81 u/L
ALBUMIN [4]: 3.7 G/DL
ALKALINE PHOSPHATASE [4]: 457 u/L
ASPARTATE AMINOTRANSFERASE [4]: 158 u/L
BLOOD UREA NITROGEN [4]: 17.5 mg/dL
CHLORIDE [4]: 108 MEQ/L
CHOLESTEROL [4]: 44.5 mg/dL
CREATINE PHOSPHOKINASE [4]: 289 u/L
CREATININE [4]: 0.65 mg/dL
GLUCOSE [4]: 206 mg/dL
PHOSPHORUS [4]: 12.6 mg/dL
POTASSIUM [4]: 7.3 MEQ/L
SODIUM [4]: 151.5 MEQ/L
TOTAL BILIRUBIN [4]: 0.35 mg/dL
TOTAL PROTEIN [4]: 5.95 G/DL

From ChEMBL document CHEMBL3885881, “DrugMatrix”
